Source: US20220249401A1, “DIETARY SUPPLEMENT FORMULATED BASED ON ALL-TRANS FORM OF MENAQUINONE-7” (NUTRIOMICS LIMITED, priority 2021, published 2022)

System: MGP
Assay: MGP gene expression in chondrocyte cells treated with trans form of MK7
Assay type: cell-based
Details: Chondrocyte cells treated with 0.01% (w/w) trans form of MK7; mRNA encoding MGP, relative to control conditions
Method: Example 2—The role of the trans form of MK7 in expression of MGP was measured as compared to control samples. Chondrocyte cells were treated with 0.01% (w/w) trans form of vitamin MK7 and results were reported as fold change in gene expression relative to control conditions.
MGP expression was elevated by 21% in the presence of trans form of MK7 as compared to the control samples as can be concluded from FIG. 2. […] MGP gene expression found to actively be regulated in the presence of trans form of MK7.

CC(C)=CCC/C(C)=C/CC/C(C)=C/CC/C(C)=C/CC/C(C)=C/CC/C(C)=C/CC/C(C)=C/CC1=C(C)C(=O)c2ccccc2C1=O [trans form of MK7, all-trans form of Menaquinone-7]
MGP expression elevated as compared to the control samples: 21%
